Where two headings read alike, the source gives them in different places.
Target: recombinant CpLDH protein (Cryptosporidium parvum, UniProt Q9GT92, F198L/K295E/R251K)

| Compound | MEAN CpLDH INHIBITION (%) | MEAN CpLDH INHIBITION (%) (20 μM compound, 10 mM pyruvate, 1 mM NADH, values below 0 = augmenters) |
| --- | --- | --- |
| COc1ccc(C(=O)/C(Br)=C\C(=O)[O-])cc1.[Na+] [NSC104801] | -32.70 | – |
| C/C(=N\NC(=S)N1CCN(C2CCCCCC2)CC1)c1ccccn1 [NSC376265] | -34.26 | – |
| CCC1CN2CCc3cc(OC)c(OC)cc3C2CC1CC1c2cc(OC)c(OC)cc2CCN1C(=O)C1CCCN1C(=O)OCc1ccccc1 (centres unmarked) [NSC103248] | -105.50 | – |
| CN(C)C[C@H]1CC[C@@H](CN(C)C)C1=O.Cl [NSC640391] | -1.88 | – |
| CCn1c(O)c(C=Nc2ccccc2)s/c1=N/Nc1ncc(CC(=O)Nc2ccccc2C)s1 [NSC658350] | -19.59 | – |
| CC[C@](C)(O)C(=O)O[C@H]1C(=O)O[C@@H]2C[C@H]3C(C)=CC(=O)[C@@H](O)[C@]3(C)[C@H]3[C@@]4(O)OC[C@]32[C@@H]1[C@@H](C)[C@H]4O [NSC132791] | -161.16 | – |
| Cc1c(C(=O)C/C(=N/NC(=O)CC#N)C(N)=O)[n+](=O)c2ccccc2n1[O-] [NSC635542] | -10.72 | – |
| CCCN(CCC)C(=S)Sc1nc(C)nc(N2CCN(c3nc(C)nc(SC(=S)N(CCC)CCC)c3[N+](=O)[O-])CC2)c1[N+](=O)[O-] [NSC675593] | -141.86 | – |
| CO[C@H]1/C=C\C=C(/C)C(=O)NC2=CC(=O)C(N)=C(C[C@@H](C)C[C@H](OC)[C@H](O)[C@@H](C)/C=C(\C)[C@@H]1OC(N)=O)C2=O [NSC255109] | -205.22 | – |
| C/C(NNC(=O)c1ccccc1O)=C1\C=Nc2ccccc2S1 [NSC635121] | 0.03 | – |
| COc1ccc(NC2=NCCO2)c2c1CCCC2 [NSC663996] | -51.63 | – |
| [O-][Cl+3]([O-])([O-])[O-].c1ccc(-c2csc3c4ccccc4c4ccccc4[n+]23)cc1 [NSC98904] | -42.18 | – |
| CC(=O)O[C@]1(C(C)=O)CC[C@H]2[C@@H]3C[C@H](C)C4=CC(=O)C=C[C@]4(C)[C@@]3(F)[C@@H](O)C[C@@]21C [NSC47438] | -57.83 | – |
| CCS(=O)(=O)Nc1ccc(Nc2c3ccccc3nc3ccccc23)c(OC)c1.CS(=O)(=O)O [NSC243928] | -32.64 | – |
| O=C(CC1(O)C(=O)Nc2c(Cl)cc(Cl)cc21)c1cccc([N+](=O)[O-])c1 (centres unmarked) [NSC635438] | -43.53 | – |
| O=C1c2ccccc2C(=O)C1C(c1ccc([N+](=O)[O-])cc1)C1C(=O)c2ccccc2C1=O [NSC643148] | -12.75 | – |
| COc1ccc(-c2cc(=O)c3c(OC)c(OC)c(OC)cc3o2)cc1 [NSC53908] | -32.76 | – |
| CC[C@@]1(O)C[C@H](O[C@H]2C[C@H](N(C)C)[C@H](O[C@H]3C[C@@H]4O[C@H]5CC(=O)[C@H](C)O[C@H]5O[C@@H]4[C@H](C)O3)[C@H](C)O2)c2c(cc3c(c2O)C(=O)c2c(O)ccc(O)c2C3=O)[C@H]1C(=O)OC [NSC243023] | -140.35 | – |
| Cc1ccc(S(=O)(=O)[O-])cc1.Cc1ccc(S(=O)(=O)[O-])cc1.Cn1c(-c2ccc(/C=C/C=N/NC(=O)c3ccc(C(=O)N/N=C/C=C/c4ccc(-c5c[n+]6ccccc6n5C)cc4)cc3)cc2)c[n+]2ccccc12 [NSC603169] | -164.45 | – |
| CC(C)[Si]1(C(C)C)OCC2OC(n3cnc4c(N)ncnc43)C(N)C2O[Si](C(C)C)(C(C)C)O1 (centres unmarked) [NSC687330] | -17.98 | – |
| Cc1ccc(NC(=O)c2cc3ccccc3c(N=Nc3ccccc3O)c2O)c(C)c1 [NSC374898] | -39.33 | – |
| N#CCCN(CCC#N)c1ccc(C=Nc2ccc(F)cc2)cc1 [NSC620277] | -46.45 | – |
| CC(C)(C)OC(=O)NC(Cc1ccccc1)C(=O)OCN1C(=O)C2C3C=CC(C2C1=O)C1C2C(=O)N(COC(=O)C(Cc4ccccc4)NC(=O)OC(C)(C)C)C(=O)C2C31 (centres unmarked) [NSC607316] | -7.22 | – |

| Compound | MEAN CpLDH INHIBITION (%) | MEAN CpLDH INHIBITION (%) (20 μM compound, 10 mM pyruvate, 1 mM NADH, values below 0 = augmenters) |
| --- | --- | --- |
| Cc1ccc(NC(=S)C#N)c(C)c1 [NSC369318] | -37.61 | – |
| CC(=O)c1ccc(Oc2ccc(/C(C)=N\N=C(N)N)cc2)cc1.O=[N+]([O-])O [NSC97911] | -11.97 | – |
| COC(=O)C1(C)CCCC2(C)c3cc(OC)ccc3C(=O)C(Br)C12 (centres unmarked) [NSC169600] | -28.27 | – |
| CCOC(=O)C(C)NC(=O)N(C)C12CC3CC(CC(C3)C1)C2 (centres unmarked) [NSC208913] | -30.10 | – |
| COc1cc(O)c2c(c1)C(=O)c1cc3c(c(O)c1C2=O)[C@@H](O[C@@H]1O[C@@H](C)[C@H](O)[C@@H](O)[C@H]1OC)[C@H](OC)[C@](C)(O)C3=O [NSC93419] | -51.14 | – |
| O=C1Oc2ccccc2C1C/C(=N\Nc1ccccc1)c1ccccc1O (centres unmarked) [NSC647613] | -29.39 | – |
| Nc1ccc2nc3ccc(=O)cc-3n(-c3ccccc3)c2c1 [NSC31702] | -41.86 | – |
| Cc1ccc(Nc2nc(C)c(C(/C=C/c3ccc(/C=C/C(=N\NC(=O)C[n+]4ccccc4)c4sc(Nc5ccc(C)cc5[N+](=O)[O-])nc4C)cc3)=N/NC(=O)C[n+]3ccccc3)s2)c([N+](=O)[O-])c1.Cl [NSC640342] | -89.53 | – |
| O=c1ccc2ccc(CBr)cc2o1 [NSC99027] | -71.89 | – |
| CC1=CC23C(COC(=O)C24CO4)C(C(=O)O)=CC3C1C.NCc1ccccc1 (centres unmarked) [NSC136037] | -0.26 | – |
| COc1ccccc1/C=C1\Sc2scc(-c3cccc([N+](=O)[O-])c3)[n+]2C1=O.[Cl-] [NSC657446] | -8.01 | – |
| CC(=O)/C(=C\c1cccc([N+](=O)[O-])c1)C(=O)Nc1ccccc1C [NSC634658] | -26.76 | – |
| COc1ccc2nc(NC(=O)C(=O)CC(=O)c3ccc(Cl)cc3)sc2c1 [NSC623059] | -31.35 | – |
| O=C(c1ccccc1)C(c1ccccc1)C1(O)C(=O)Nc2c(Cl)cc(Cl)cc21 (centres unmarked) [NSC635312] | -41.63 | – |
| [Cl][Hg][c]1ccc2ccccc2c1 [NSC174163] | -16.59 | – |
| CC1(C)CCC[C@]2(C)C3=C(CC[C@@H]12)C(=O)OC3 [NSC375294] | -39.63 | – |
| Nc1nc(=S)c2ncn(C3CC(O)C(CO)O3)c2[nH]1 (centres unmarked) [NSC71851] | -30.23 | – |
| CN(C)CCOC1(Cc2ccc(Cl)cc2Cl)CCC(C(C)(C)C)CC1.Cl (centres unmarked) [NSC670224] | -73.95 | – |
| S=C=NCc1ccccc1 [NSC118976] | -18.30 | – |
| Cl.NC(=O)c1cn(C2OC(CO)C(O)C2O)c2ncnc(N)c12 (centres unmarked) [NSC143648] | -33.40 | – |
| CN(C)c1ccc(/C=c2/sc3nc(=O)c(-c4ccccc4NC(=O)C(F)(F)F)nn3c2=O)cc1 [NSC623095] | -151.18 | – |
| CCN(CC)Cc1cc(N=Nc2c(O)ccc3c(N=Nc4ccc(O)c(CN(CC)CC)c4)c(O)ccc23)ccc1O.Cl [NSC359463] | -17.14 | – |
| N=C1C=C(N)C(=O)c2[nH]c(=O)ccc21 [NSC111041] | -37.64 | – |

| Compound | MEAN CpLDH INHIBITION (%) | MEAN CpLDH INHIBITION (%) (20 μM compound, 10 mM pyruvate, 1 mM NADH, values below 0 = augmenters) |
| --- | --- | --- |
| COC(=O)c1ccccc1OCc1cc(=O)oc2ccc(C)cc12 [NSC623637] | -23.29 | – |
| C=CCOC1OC(CO[Si](C)(C)C(C)(C)C)C(OCc2ccccc2)C(OCc2ccccc2)C1OCc1ccccc1 (centres unmarked) [NSC624953] | -142.25 | – |
| Cc1ccc2ccc3ccc(C)nc3c2n1 [NSC4280] | -27.03 | – |
| CC(=O)NC1C(OCc2ccccc2)OC(CO)C(O)C1OC(C)C(=O)NC(C(=O)NC(CCC(=O)NCCCCNc1c2ccccc2nc2cccc([N+](=O)[O-])c12)C(N)=O)C(C)C (centres unmarked) [NSC697468] | -5.22 | – |
| O=C(NC(=O)c1c(Cl)nc2sccn12)Nc1ccc(Cl)cc1 [NSC633209] | -19.92 | – |
| CCCC[S+]([O-])CC(CO)NC(=O)/C=C/c1c(C)[nH]c(=O)[nH]c1=O (centres unmarked) [NSC241509] | -30.83 | – |
| Cc1c2ccc3ccccc3c2c[n+]2ccccc12.[Cl-] [NSC28002] | -26.04 | – |
| S=C(Nc1ccccc1)N(/N=C/C=C/c1ccccc1)c1nnc(-c2ccccc2)c(-c2ccccc2)n1 [NSC640637] | -17.02 | – |
| O=[N+]([O-])c1cc(C(F)(F)F)cc([N+](=O)[O-])c1CCl [NSC622627] | -26.97 | – |
| N#CC(C#N)=Cc1ccc(Oc2ccccc2)cc1 [NSC643028] | -52.45 | – |
| C[C@]12CC[C@H](O)C[C@H]1CC[C@@H]1[C@@H]2CC[C@]2(C)[C@@H](C3=CC(=O)OC3)CC[C@]12O [NSC407806] | -16.59 | – |
| O=C([O][Hg][CH2]C1COC([CH2][Hg][O]C(=O)c2ccccc2)CO1)c1ccccc1 (centres unmarked) [NSC30916] | -5.35 | – |
| CCOC(=O)Nc1cc2c(c(N)n1)N=C(c1ccccc1)CN2 [NSC330770] | -9.40 | – |
| C/C(=N\NC(=S)N1CCC1)c1ccccn1 [NSC319726] | – | -58.85 |
| C=C(NC(=O)C(=C)NC(=O)c1csc(C2=N[C@@H]3c4csc(n4)[C@H]4NC(=O)c5csc(n5)[C@H]([C@](C)(O)[C@@H](C)O)NC(=O)[C@H]5CSC(=N5)/C(=C/C)NC(=O)[C@H]([C@@H](C)O)NC(=O)c5csc(n5)[C@]3(CC2)NC(=O)[C@H](C)NC(=O)C(=C)NC(=O)C(=C)NC(=O)[C@H](C(C)C)N[C@@H]2C=Cc3c([C@H](C)O)cc(nc3[C@H]2O)C(=O)O[C@@H]4C)n1)C(N)=O [NSC285116] | -2.26 | – |
| N#CC1=C(N)Oc2c(ccc3cccnc23)C1c1ccccc1 (centres unmarked) [NSC631583] | -36.52 | – |
| COc1cc2cc3c4cc(OC)c(OC)cc4cc[n+]3c(C)c2cc1OC.O=C([O-])CS(=O)(=O)O [NSC154890] | -11.41 | – |
| COc1cc2c(c(OC)c1OC)-c1ccc(OC)c(=O)cc1[C@@H](NC(=O)c1ccccc1)CC2 [NSC33410] | -43.24 | – |
| CCCCn1c2c(n(CCCC)c1=S)-c1c(n(CCCC)c(=S)n1CCCC)SSSS2 [NSC700582] | -83.75 | – |
| COc1cc2c3c(c1OC)-c1cc4c(cc1CC3(C#N)N(C(=O)c1ccccc1)CC2)OCO4 (centres unmarked) [NSC627666] | -0.33 | – |
| OCCNCN(CNCCO)c1nc(N(CNCCO)CNCCO)nc(N(CNCCO)CNCCO)n1 [NSC653000] | -58.42 | – |
| CCS(=O)(=O)O.CN(C)C(=O)c1cccc(COc2ccc(N3C(N)=NC(N)=NC3(C)C)cc2Cl)c1 [NSC139105] | -28.54 | – |

— PMC6687188, “Novel lactate dehydrogenase inhibitors with in vivo efficacy against Cryptosporidium parvum” (PLoS Pathogens, 2019)
